The target in this assay is T1, CFTR del Ex24 (Homo sapiens, UniProt P13569, DEL1292-1321).
T1 construct: expressed in transfected cells; host or cells: HEK 293 cells, transient transfection with Lipofectamine 2000
Description: FLIPR membrane potential assay of CFTR function. The class given is cell-based. As to conditions: HEK 293 cells transiently transfected with CFTR del Ex24; activated by forskolin 10 uM; FIG. 1B. As for the experimental part:
HEK cells were transiently transfected with a construct bearing a CFTR transcript having exon 24 completely deleted from it (CFTR del Ex24). Transfection was carried out using Lipofectamine 2000 transfection reagent (Invitrogen) according to the lipofectamine 2000 reagent protocol using the following lipofectamine amounts: 96 well—0.15 μl, 6 well—3 μl, 10 mm plate—15 μl. HEK cells transfected with the CFTR del Ex24 construct were grown in 96-well (black, flat bottom; corning) plates. 48 hr post-transfection, CFTR channel function was analyzed using the FLIPR membrane potential assay as previously described (Molinski et al., 2015). Briefly, the cells were loaded with blue membrane potential dye (Molecular Devices), which can detect changes in transmembrane potential. The plate was then read in a fluorescence plate reader (BioTek Synergy H1) for baseline levels followed by CFTR stimulation using the cAMP agonist forskolin (10 μM; Sigma), DMSO vehicle was used as a negative control. CFTR-mediated depolarization of the plasma membrane was detected as an increase in fluorescence and hyperpolarization (or repolarization) as a decrease. […] FLIPR™ (Fluorescence Imaging Plate Reader) is a functional system that allows measuring changes in membrane potential by a fluorescent indicator. […]

T1 sequence (P13569 with tags, fused parts or gaps DEL1292-1321): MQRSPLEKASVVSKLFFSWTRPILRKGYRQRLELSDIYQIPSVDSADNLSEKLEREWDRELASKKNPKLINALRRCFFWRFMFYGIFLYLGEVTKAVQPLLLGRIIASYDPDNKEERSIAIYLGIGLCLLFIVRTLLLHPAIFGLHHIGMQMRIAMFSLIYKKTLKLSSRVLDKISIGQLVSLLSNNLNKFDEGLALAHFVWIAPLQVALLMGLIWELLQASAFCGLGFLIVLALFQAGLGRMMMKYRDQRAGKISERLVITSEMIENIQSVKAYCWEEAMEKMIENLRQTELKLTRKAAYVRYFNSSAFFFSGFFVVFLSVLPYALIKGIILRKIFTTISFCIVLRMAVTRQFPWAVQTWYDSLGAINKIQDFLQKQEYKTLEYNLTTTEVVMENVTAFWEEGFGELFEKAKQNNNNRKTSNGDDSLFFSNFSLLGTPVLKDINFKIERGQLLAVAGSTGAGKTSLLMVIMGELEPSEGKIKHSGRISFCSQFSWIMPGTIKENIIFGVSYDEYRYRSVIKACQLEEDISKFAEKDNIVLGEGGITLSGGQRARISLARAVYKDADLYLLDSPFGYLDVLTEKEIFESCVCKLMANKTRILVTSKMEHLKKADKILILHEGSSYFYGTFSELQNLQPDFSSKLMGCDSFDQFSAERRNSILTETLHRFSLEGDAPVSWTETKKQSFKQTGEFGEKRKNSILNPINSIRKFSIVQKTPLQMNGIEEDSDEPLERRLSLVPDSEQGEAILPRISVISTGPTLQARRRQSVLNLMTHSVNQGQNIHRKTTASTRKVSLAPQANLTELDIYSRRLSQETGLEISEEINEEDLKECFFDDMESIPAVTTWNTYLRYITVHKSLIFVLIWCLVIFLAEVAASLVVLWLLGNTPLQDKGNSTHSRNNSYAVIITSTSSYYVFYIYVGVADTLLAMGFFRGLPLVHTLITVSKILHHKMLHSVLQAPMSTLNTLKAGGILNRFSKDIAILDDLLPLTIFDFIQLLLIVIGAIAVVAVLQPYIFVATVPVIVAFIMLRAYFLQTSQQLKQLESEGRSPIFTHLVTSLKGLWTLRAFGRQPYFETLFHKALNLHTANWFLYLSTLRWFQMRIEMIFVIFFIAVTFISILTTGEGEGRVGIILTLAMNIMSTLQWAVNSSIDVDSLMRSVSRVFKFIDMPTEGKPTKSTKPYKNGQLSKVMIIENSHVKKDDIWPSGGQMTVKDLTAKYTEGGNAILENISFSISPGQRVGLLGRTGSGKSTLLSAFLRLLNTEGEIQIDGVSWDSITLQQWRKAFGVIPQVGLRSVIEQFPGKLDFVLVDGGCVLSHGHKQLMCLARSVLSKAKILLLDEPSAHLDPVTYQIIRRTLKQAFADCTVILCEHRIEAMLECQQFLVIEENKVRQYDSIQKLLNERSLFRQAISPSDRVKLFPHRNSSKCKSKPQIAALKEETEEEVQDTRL

Turning to `CC(C)(C)c1cc(C(C)(C)C)c(NC(=O)c2c[nH]c3ccccc3c2=O)cc1O` [VX-770, N-(2,4-Di-tert-butyl-5-hydroxyphenyl)-4-oxo-1,4-dihydroquinoline-3-carboxamide], the channel activation was 50 % of WT.

Source of the values: patent publication US20220064647A1, “COMPOSITIONS AND METHODS FOR TREATING CYSTIC FIBROSIS” (SpliSense Ltd., priority 2019, published 2022).
